Test results taken from patent publication US20140066369A1, “Modulators Of The GPR119 Receptor And The Treatment Of Disorders Related Thereto” (ARENA PHARMACEUTICALS, INC., priority 2011, published 2014).
pEC50: −log10 of the molar value.

Key:
hGPR119 = target: T1, hGPR119 (Homo sapiens, UniProt Q8TDV5); experiment: HTRF assay for direct cAMP measurement in CHO-K1 cells stably expressing the GPR119 receptor; assay type: cell-based
T1 construct: expressed in transfected cells
T1 sequence (Q8TDV5 2-335): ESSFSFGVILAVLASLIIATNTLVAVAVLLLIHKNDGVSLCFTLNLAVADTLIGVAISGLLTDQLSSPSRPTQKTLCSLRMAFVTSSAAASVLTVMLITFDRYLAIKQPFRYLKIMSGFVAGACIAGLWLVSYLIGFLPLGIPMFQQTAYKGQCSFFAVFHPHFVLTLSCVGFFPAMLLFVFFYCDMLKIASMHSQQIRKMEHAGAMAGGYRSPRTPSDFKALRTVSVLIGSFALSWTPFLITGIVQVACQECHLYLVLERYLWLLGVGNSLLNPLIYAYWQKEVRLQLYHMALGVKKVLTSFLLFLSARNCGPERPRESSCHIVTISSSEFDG
Description: GPR119 agonists were evaluated in an HTRF® cAMP detection assay (Cisbio, cAMP Dynamic 2 Assay Kit; #62AM4PEJ) according to the manufacturer's instructions using CHO-K1 cells stably expressing the GPR119 receptor. CHO-K1 cells were transduced with a lentiviral vector encoding the nucleotide sequence of GPR119 (NCBI mRNA and protein reference sequences: NM_178471.2 & NP_848566). The N-terminus of the GPR119 nucleotide sequence was modified to replace the first, methionine-coding, codon with a nucleotide sequence coding for a standard, nine amino acid, hemagglutinin tag. Following transduction, cells expressing the GPR119 receptor were isolated and a single clone was isolated following standard dilution-cloning procedures. On the day of the assay, cultured CHO-GPR119 cells were harvested, suspended in assay buffer and plated into 384-well assay plates (PerkinElmer® Proxiplate® #6008280) at a density of 2,000 cells per well. A cAMP standard curve was added to each plate. Test compounds were dissolved in DMSO, serially diluted in DMSO and then diluted in assay buffer before addition to the cells. Test compounds were evaluated in triplicate, using 10-point, 5-fold serial dilutions starting at 10 μM. The final DMSO concentration in the assay was 0.5%. Compounds and cells were incubated for 1 h at room temperature and then detection reagents were added to each well (cAMP-D2 in cell lysis buffer, followed by europium cryptate-labeled anti-cAMP antibody). Plates were then incubated at room temperature for 1 h prior to reading. Time-resolved fluorescence measurements were collected on PerkinElmer Envision™ or BMG Pherastar™ microplate readers. The compound N-(2-fluoro-4-(methylsulfonyl) phenyl)-6-(4-(3-isopropyl-1,2,4-oxadiazol-5-yl)piperidin-1-yl)-5-nitropyrimidin-4-amine was used as a positive control in each runset while assay buffer containing 0.5% DMSO was used as the negative control. The HTRF® assay was used to determine EC50 values for GPR119 agonists.

male 129SVE mice [1] = experiment: Oral glucose tolerance test (oGTT), glucose homeostasis in male 129SVE mice; assay type: in vivo
Description: Male 129SVE mice (approximately 8 weeks old) were fasted for 18 h and randomly grouped (n=6) to receive a GPR119 agonist (Compound 17) at 3 or 10 mg/kg (mg/kg body weight). The compound was delivered orally via a gavage needle (p.o., 4 mL/kg) 30 minutes prior to glucose bolus (3 g/kg) (time=−30 min in FIG. 1), with a separate group receiving vehicle (20% hydroxypropyl-beta-cyclodextrin (HPCD)) as control. At time 0 min the glucose bolus was administered. Levels of blood glucose were assessed using a glucometer (One-Touch Ultra™, LifeScan) at time −30 min (prior to compound administration), at 0 min (at time when glucose bolus was given), and at 20, 40, 60, 120 min post glucose bolus. Plasma glucose levels (Table B) and the glucose excursion curve (FIG. 1) are shown. The reduction in the glucose excursion area under the curve (AUC) from −30 to 120 min in GPR119 agonist-treated animals relative to vehicle is shown in FIG. 2.

male 129SVE mice [2] = experiment: GIP release in male 129SVE mice (plasma total GIP, ELISA); assay type: in vivo; details: 3 or 30 mg/kg p.o.; blood sample after 45 min
Description: Male 129SVE mice (approximately 8 weeks old) were fasted for 18 h and randomly grouped (n=6) to receive a GPR119 agonist (Compound 17) at 3 or 30 mg/kg. Compound 17 was delivered orally via a gavage needle (p.o., 4 mL/kg), and after 45 min a blood sample was collected to determine plasma total GIP levels. A separate control group received vehicle (PET (80% PEG: 10% Ethanol: 10% Tween80™)). Plasma GIP levels were determined using a GIP (total) ELISA kit from Millipore.

SMILES: CCc1cnc(N2CCN([C@H]3CC[C@H](COc4ccc(S(C)(=O)=O)cc4)CC3)CC2)nc1 [Compound 5, 5-Ethyl-2-(4-((1r,4r)-4-((4-(methylsulfonyl)phenoxy)methyl)cyclohexyl)piperazin-1-yl)pyrimidine]
- pEC50 (hGPR119): 6.97

SMILES: CS(=O)(=O)c1ccc(OC[C@H]2CC[C@H](N3CCN(c4ncc(Cl)cn4)CC3)CC2)c(F)c1 [Compound 17, 5-Chloro-2-(4-((1r,4r)-4-((2-fluoro-4-(methylsulfonyl)phenoxy)methyl)cyclohexyl)piperazin-1-yl)pyrimidine]
- Plasma Glucose, Mean (male 129SVE mice [1]; 3 mg/kg p.o., 20 min post glucose bolus): 263.5 mg/dL
- Plasma Glucose, Mean (male 129SVE mice [1]; 3 mg/kg p.o., 40 min post glucose bolus): 304.8333 mg/dL
- Plasma Glucose, Mean (male 129SVE mice [1]; 3 mg/kg p.o., 60 min post glucose bolus): 247.6667 mg/dL
- Plasma Glucose, Mean (male 129SVE mice [1]; 3 mg/kg p.o., 120 min post glucose bolus): 166.3333 mg/dL
- Plasma Glucose, Mean (male 129SVE mice [1]; 3 mg/kg p.o., time relative to glucose bolus 0 min): 88.0 mg/dL
- Plasma Glucose, Mean (male 129SVE mice [1]; 3 mg/kg p.o., time relative to glucose bolus −30 min (prior to compound administration), oGTT, glucose 3 g/kg): 67.33 mg/dL
- Plasma Glucose, Mean (male 129SVE mice [1]; 10 mg/kg p.o., 20 min post glucose bolus): 203.8333 mg/dL
- Plasma Glucose, Mean (male 129SVE mice [1]; 10 mg/kg p.o., 40 min post glucose bolus): 234.8333 mg/dL
- Plasma Glucose, Mean (male 129SVE mice [1]; 10 mg/kg p.o., 60 min post glucose bolus): 186.1667 mg/dL
- Plasma Glucose, Mean (male 129SVE mice [1]; 10 mg/kg p.o., 120 min post glucose bolus): 167.3333 mg/dL
- Plasma Glucose, Mean (male 129SVE mice [1]; 10 mg/kg p.o., time relative to glucose bolus 0 min): 96.33 mg/dL
- Plasma Glucose, Mean (male 129SVE mice [1]; 10 mg/kg p.o., time relative to glucose bolus −30 min (prior to compound administration), oGTT, glucose 3 g/kg): 68.5 mg/dL
- Effect on blood glucose after challenge with glucose (male 129SVE mice [1]; 3 or 10 mg/kg p.o., 30 minutes prior to glucose bolus, relative to vehicle): lowered blood glucose
- Effect on GIP release (plasma total GIP) (male 129SVE mice [2]): stimulated the release of GIP
- pEC50 (hGPR119): 7.29

SMILES: N#Cc1ccc(OC[C@H]2CC[C@H](N3CCN(c4ncc(C(F)(F)F)cn4)CC3)CC2)cc1 [Compound 23, 4-(((1r,4r)-4-(4-(5-(Trifluoromethyl)pyrimidin-2-yl)piperazin-1-yl)cyclohexyl)methoxy) benzonitrile]
- pEC50 (hGPR119): 5.86

SMILES: Cc1nc(S(C)(=O)=O)ccc1OC[C@H]1CC[C@H](N2CCN(c3ncc(C(F)(F)F)cn3)C[C@@H]2C)CC1 [Compound 26, 2-((S)-3-Methyl-4-((1r,4S)-4-((2-methyl-6-(methylsulfonyl)pyridin-3-yloxy)methyl)cyclohexyl)piperazin-1-yl)-5-(trifluoromethyl)pyrimidine]
- pEC50 (hGPR119): 6.22

SMILES: C[C@@H]1CN(c2ncc(Cl)cn2)CCN1[C@H]1CC[C@H](COc2ccc(S(C)(=O)=O)cc2F)CC1 [Compound 31, 5-Chloro-2-((R)-4-((1r,4R)-4-((2-fluoro-4-(methylsulfonyl)phenoxy)methyl)cyclohexyl)-3-methylpiperazin-1-yl)pyrimidine]
- pEC50 (hGPR119): 7.15

SMILES: CN(C)C(=O)c1ccc(OC[C@H]2CC[C@H](N3CCN(C(=O)OC(C)(C)C)CC3)CC2)c(F)c1 [Compound 38, tert-Butyl 4-((1r,4r)-4-((4-(dimethylcarbamoyl)-2-fluorophenoxy)methyl)cyclohexyl)piperazine-1-carboxylate]
- pEC50 (hGPR119): 6.66

SMILES: C[C@@H](OC(=O)N1CCN([C@H]2CC[C@H](COc3ccc(-n4cnnn4)cc3F)CC2)CC1)C(F)(F)F [Compound 44, (R)-1,1,1-Trifluoropropan-2-yl 4-((1r,4R)-4-((2-fluoro-4-(1H-tetrazol-1-yl)phenoxy)methyl)cyclohexyl) piperazine-1-carboxylate]
- pEC50 (hGPR119): 7.65

SMILES: CS(=O)(=O)c1ccc(OC[C@H]2CC[C@H](N3CCN(c4nc(C(F)(F)F)no4)CC3)CC2)c(F)c1 [Compound 64, 5-(4-((1r,4r)-4-((2-Fluoro-4-(methylsulfonyl)phenoxy)methyl)cyclohexyl)piperazin-1-yl)-3-(trifluoromethyl)-1,2,4-oxadiazole]
- pEC50 (hGPR119): 7.86
